In patent US7994209B2, “3-phenoxymethylpyrrolidine compounds” (Theravance, Inc., priority 2009, dated 2011):

Columns and labels:
hNET = hNET (Homo sapiens, UniProt P23975); assay: hNET membrane radioligand binding assay (3H-nisoxetine), Assay 1
hSERT = hSERT (Homo sapiens, UniProt P31645); assay: hSERT membrane radioligand binding assay (3H-citalopram), Assay 1; details: SERT pKi, hSERT HEK-293 membranes, 1.0 nM 3H-citalopram; values given as lower bounds
hSERT, sequence (P31645 whole entry): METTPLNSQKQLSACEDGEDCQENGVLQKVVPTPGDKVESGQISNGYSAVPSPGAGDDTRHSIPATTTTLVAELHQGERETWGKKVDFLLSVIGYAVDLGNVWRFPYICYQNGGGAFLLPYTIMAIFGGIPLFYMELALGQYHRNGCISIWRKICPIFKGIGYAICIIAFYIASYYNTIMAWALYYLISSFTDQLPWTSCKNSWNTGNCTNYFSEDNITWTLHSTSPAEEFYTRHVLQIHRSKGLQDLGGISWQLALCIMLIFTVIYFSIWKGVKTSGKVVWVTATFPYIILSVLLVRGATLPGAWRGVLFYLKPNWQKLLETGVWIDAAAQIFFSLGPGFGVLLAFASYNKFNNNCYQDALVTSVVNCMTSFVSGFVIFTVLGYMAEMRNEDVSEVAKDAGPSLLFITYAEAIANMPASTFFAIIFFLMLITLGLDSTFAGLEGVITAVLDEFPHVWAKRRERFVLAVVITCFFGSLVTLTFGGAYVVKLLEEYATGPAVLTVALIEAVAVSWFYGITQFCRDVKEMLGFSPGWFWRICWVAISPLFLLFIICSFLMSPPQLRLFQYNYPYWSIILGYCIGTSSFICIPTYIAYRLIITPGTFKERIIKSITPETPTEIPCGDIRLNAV

hNET, sequence (P23975 whole entry): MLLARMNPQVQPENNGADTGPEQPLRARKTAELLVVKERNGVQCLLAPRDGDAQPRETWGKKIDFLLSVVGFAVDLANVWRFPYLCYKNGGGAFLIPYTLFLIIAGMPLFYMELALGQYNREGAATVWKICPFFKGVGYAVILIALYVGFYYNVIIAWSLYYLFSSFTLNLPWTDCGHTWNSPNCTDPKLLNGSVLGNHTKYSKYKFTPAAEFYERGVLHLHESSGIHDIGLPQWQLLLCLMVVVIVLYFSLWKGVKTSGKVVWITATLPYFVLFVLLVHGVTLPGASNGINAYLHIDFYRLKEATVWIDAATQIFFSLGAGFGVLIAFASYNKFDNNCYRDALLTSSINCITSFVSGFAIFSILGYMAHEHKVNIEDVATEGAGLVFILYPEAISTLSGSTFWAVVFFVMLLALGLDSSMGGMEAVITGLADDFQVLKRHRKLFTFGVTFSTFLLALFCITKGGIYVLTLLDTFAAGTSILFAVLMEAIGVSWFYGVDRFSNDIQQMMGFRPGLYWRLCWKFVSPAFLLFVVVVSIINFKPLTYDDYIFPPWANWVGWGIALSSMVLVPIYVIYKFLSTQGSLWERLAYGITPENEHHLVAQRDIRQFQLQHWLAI

Row | Ki (hNET) [nM] | Ki (hSERT) [nM] | SMILES
1 | ≤ 10 | ≤ 100 | CSc1ccccc1O[C@H](C1CC1)[C@H]1CCNC1 [Example 16-4, (S)-3-[(R)cyclopropyl-(2-methylsulfanylphenoxy)methyl]pyrrolidine]
2 | ≤ 10 | ≤ 100 | CSc1ccccc1O[C@@H](C1CC1)[C@H]1CCNC1 [Example 16-5, (S)-3-[(S)cyclopropyl-(2-methylsulfanylphenoxy)methyl]pyrrolidine]
3 | ≤ 100 | ≤ 10 | Clc1cccc(O[C@@H](C2CC2)[C@@H]2CCNC2)c1Cl [Example 16-6, (R)-3-[(S)cyclopropyl-(2,3-dichlorophenoxy)methyl]pyrrolidine]
4 | ≤ 100 | ≤ 10 | FC(F)(F)c1c(Cl)cccc1O[C@H](C1CC1)[C@H]1CCNC1 [Example 16-17, (S)-3-[(R)-(3-Chloro-2-trifluoromethylphenoxy)cyclopropylmethyl]pyrrolidine]
5 | ≤ 10 | ≤ 100 | COc1c(Cl)cccc1O[C@@H](C1CC1)[C@H]1CCNC1 [Example 16-18, (S)-3-[(S)-(3-Chloro-2-methoxyphenoxy)cyclopropylmethyl]pyrrolidine]
6 | ≤ 100 | ≤ 10 | Clc1ccc(O[C@H](C2CC2)[C@H]2CCNC2)c(Cl)c1 [Example 16-20, (S)-3-[(R)cyclopropyl-(2,4-dichlorophenoxy)methyl]pyrrolidine]
7 | ≤ 100 | ≤ 10 | Clc1ccc(O[C@H](C2CC2)[C@@H]2CCNC2)c(Cl)c1 [Example 16-21, (R)-3-[(R)cyclopropyl-(2,4-dichlorophenoxy)methyl]pyrrolidine]
8 | ≤ 100 | ≤ 10 | Cc1ccc(O[C@H](C2CC2)[C@@H]2CCNC2)c(Cl)c1 [Example 16-24, (R)-3-[(R)-(2-Chloro-4-methylphenoxy)cyclopropylmethyl]pyrrolidine]
9 | ≤ 100 | ≤ 10 | Cc1ccc(O[C@H](C2CC2)[C@@H]2CCNC2)c(Br)c1 [Example 16-26, (R)-3-[(R)-(2-Bromo-4-methylphenoxy)cyclopropylmethyl]pyrrolidine]
10 | ≤ 100 | ≤ 10 | Cc1ccc(O[C@H](C2CC2)[C@@H]2CCNC2)c(C)c1 [Example 16-27, (R)-3-[(R)cyclopropyl-(2,4-dimethylphenoxy)-methyl]pyrrolidine]
11 | ≤ 100 | ≤ 10 | Cc1cc(Cl)ccc1O[C@H](C1CC1)[C@H]1CCNC1 [Example 16-30, (S)-3-[(R)-(4-Chloro-2-methylphenoxy)cyclopropylmethyl]pyrrolidine]
12 | ≤ 100 | ≤ 10 | Cc1cc(Cl)ccc1O[C@@H](C1CC1)[C@@H]1CCNC1 [Example 16-31, (R)-3-[(S)-(4-Chloro-2-methylphenoxy)cyclopropylmethyl]pyrrolidine]
13 | ≤ 100 | ≤ 10 | Cc1cc(Cl)ccc1O[C@H](C1CC1)[C@@H]1CCNC1 [Example 16-32, (R)-3-[(R)-(4-Chloro-2-methylphenoxy)cyclopropylmethyl]pyrrolidine]
14 | ≤ 10 | ≤ 10 | FC(F)(F)c1cc(Cl)ccc1O[C@@H](C1CC1)[C@H]1CCNC1 [Example 16-35, (S)-3-[(S)-(4-Chloro-2-trifluoromethylphenoxy)cyclopropylmethyl]pyrrolidine]
15 | ≤ 100 | ≤ 100 | FC(F)(F)c1cc(Cl)ccc1O[C@H](C1CC1)[C@@H]1CCNC1 [Example 16-36, (R)-3-[(R)-(4-Chloro-2-trifluoromethylphenoxy)cyclopropylmethyl]pyrrolidine]
16 | ≤ 100 | ≤ 10 | COc1cc(F)ccc1O[C@H](C1CC1)[C@H]1CCNC1 [Example 16-39, (S)-3-[(R)cyclopropyl-(4-fluoro-2-methoxyphenoxy)methyl]pyrrolidine]
17 | ≤ 10 | ≤ 100 | COc1cc(F)ccc1O[C@@H](C1CC1)[C@H]1CCNC1 [Example 16-40, (S)-3-[(S)cyclopropyl-(4-fluoro-2-methoxyphenoxy)methyl]pyrrolidine]

The next lines start with the compound.

Row | SMILES | Ki (hNET) [nM] | Ki (hSERT) [nM]
18 | CC(C)[C@@H](Oc1c(Cl)cccc1Cl)[C@H]1CCNC1 [Example 6-29, (S)-3-[(R)-1-(2,6-Dichlorophenoxy)-2-methylpropyl]pyrrolidine] | ≤ 100 | ≤ 100
19 | Cc1cc(Cl)ccc1O[C@H](C(C)C)[C@H]1CCNC1 [Example 6-44, (S)-3-[(R)-1-(4-Chloro-2-methylphenoxy)-2-methylpropyl]pyrrolidine] | ≤ 100 | ≤ 10
20 | CC(C)[C@@H](Oc1ccc(Cl)cc1C(F)(F)F)[C@H]1CCNC1 [Example 6-52, (S)-3-[(R)-1-(4-Chloro-2-trifluoromethylphenoxy)-2-methylpropyl]pyrrolidine] | ≤ 100 | ≤ 100
21 | CC(C)[C@H](Oc1ccccc1[N+](=O)[O-])[C@H]1CCNC1 [Example 6-53, (S)-3-[(S)-2-Methyl-1-(2-nitrophenoxy)propyl]pyrrolidine] | ≤ 10 | ≤ 100
22 | CC(C)[C@H](Oc1cccc(F)c1)[C@H]1CCNC1 [Example 6-54, (S)-3-[(S)-1-(3-Fluorophenoxy)-2-methylpropyl]pyrrolidine] | ≤ 10 | ≤ 100
23 | CC(C)C(Oc1cccc(F)c1)C1CCNC1 (stereo not shown) [Example 6-55, 3-[1-(3-Fluorophenoxy)-2-methylpropyl]pyrrolidine] | ≤ 100 | ≤ 100
24 | CC(C)C(Oc1cc(Cl)cc(Cl)c1)C1CCNC1 (stereo not shown) [Example 6-67, 3-[1(3,5-Dichlorophenoxy)-2-methylpropyl]pyrrolidine] | ≤ 100 | ≤ 10
25 | CC(C)C(Oc1cccc(C(F)(F)F)c1)C1CCNC1 (stereo not shown) [Example 6-72, 3-[2-Methyl-1-(3-trifluoromethylphenoxy)-propyl]pyrrolidine] | ≤ 100 | ≤ 10
26 | CC(C)C(Oc1ccc(F)cc1)C1CCNC1 (stereo not shown) [Example 6-73, 3-[1-(4-Fluorophenoxy)-2-methylpropyl]pyrrolidine] | ≤ 100 | ≤ 100
27 | CC(C)[C@@H](Oc1ccc(Cl)cc1)[C@H]1CCNC1 [Example 6-76, (S)-3-[(R)-1-(4-Chlorophenoxy)-2-methylpropyl]pyrrolidine] | ≤ 100 | ≤ 10
28 | CC(C)C(Oc1ccc(C(F)(F)F)cc1)C1CCNC1 (stereo not shown) [Example 6-77, 3-[2-Methyl-1-(4-trifluoromethylphenoxy)propyl]pyrrolidine] | ≤ 100 | ≤ 10
29 | CCCC[C@@H](Oc1ccc(C(F)(F)F)cc1)[C@H]1CCNC1 [Example 8-5, (S)-3-[(R)-1-(4-Trifluoromethylphenoxy)pentyl]pyrrolidine] | ≤ 100 | ≤ 10
30 | CCCC[C@@H](Oc1cccc(Cl)c1Cl)[C@H]1CCNC1 [Example 8-6, (S)-3-[(R)-1-(2,3-Dichlorophenoxy)pentyl]pyrrolidine] | ≤ 10 | ≤ 10
31 | CCCC[C@@H](Oc1cccc(Cl)c1C)[C@H]1CCNC1 [Example 8-7, (S)-3-[(R)-1-(3-Chloro-2-methylphenoxy)pentyl]pyrrolidine] | ≤ 10 | ≤ 10
32 | CCCC[C@@H](Oc1ccc(Cl)cc1Cl)[C@H]1CCNC1 [Example 8-8, (S)-3-[(R)-1-(2,4-Dichlorophenoxy)pentyl]pyrrolidine] | ≤ 10 | ≤ 10
33 | CCCC[C@@H](Oc1ccc(C)cc1Cl)[C@H]1CCNC1 [Example 8-9, (S)-3-[(R)-1-(2-Chloro-4-methylphenoxy)pentyl]pyrrolidine] | ≤ 100 | ≤ 10
34 | CCCC[C@@H](Oc1ccc(Cl)cc1C)[C@H]1CCNC1 [Example 8-10, (S)-3-[(R)-1-(4-Chloro-2-methylphenoxy)pentyl]pyrrolidine] | ≤ 10 | ≤ 10
35 | CCCC[C@@H](Oc1ccc(Cl)cc1C(F)(F)F)[C@H]1CCNC1 [Example 8-11, (S)-3-[(R)-1-(4-Chloro-2-trifluoromethylphenoxy)pentyl]pyrrolidine] | ≤ 10 | ≤ 10
36 | CC(C)CC(Oc1ccccc1F)C1CCNC1 (stereo not shown) [Example 10-2, 3-[1-(2-Fluorophenoxy)-3-methylbutyl]pyrrolidine] | ≤ 10 | ≤ 100
37 | CC(C)CC(Oc1cccc(F)c1)C1CCNC1 (stereo not shown) [Example 10-6, 3-[1-(3-Fluorophenoxy)-3-methylbutyl]pyrrolidine] | ≤ 10 | ≤ 100
38 | CC(C)C[C@H](Oc1ccc(Cl)cc1)[C@@H]1CCNC1 [Example 10-12, (R)-3-[(S)-1-(4-Chlorophenoxy)-3-methylbutyl]pyrrolidine] | ≤ 100 | ≤ 10
39 | CC(C)C[C@@H](Oc1ccc(Cl)cc1)[C@@H]1CCNC1 [Example 10-14, (R)-3-[(R)-1-(4-Chlorophenoxy)-3-methylbutyl]pyrrolidine] | ≤ 100 | ≤ 10
40 | CC(C)C[C@@H](Oc1ccc(C(F)(F)F)cc1)[C@H]1CCNC1 [Example 10-17, (S)-3-[(R)-3-Methyl-1-(4-trifluoromethylphenoxy)butyl]pyrrolidine] | ≤ 100 | ≤ 10
41 | CC(C)C[C@H](Oc1cccc(Cl)c1C(F)(F)F)[C@@H]1CCNC1 [Example 10-37, (R)-3-[(S)-1-(3-Chloro-2-trifluoromethylphenoxy)-3-methylbutyl]pyrrolidine] | ≤ 100 | ≤ 10
42 | CC(=O)c1c(F)cccc1O[C@@H](CC(C)C)[C@H]1CCNC1 [Example 10-38, 1-[2-Fluoro-6-((S)-3-methyl-1-(S)-pyrrolidin-3-yl-butoxy)phenyl]ethanone] | ≤ 10 | ≤ 100
43 | CC(C)C[C@H](Oc1ccc(Cl)cc1Cl)[C@@H]1CCNC1 [Example 10-43, (R)-3-[(S)-1-(2,4-Dichlorophenoxy)-3-methylbutyl]pyrrolidine] | ≤ 100 | ≤ 10
44 | Cc1cc(Cl)ccc1O[C@@H](CC(C)C)[C@@H]1CCNC1 [Example 10-46, (R)-3-[(S)-1-(4-Chloro-2-methylphenoxy)-3-methylbutyl]pyrrolidine] | ≤ 100 | ≤ 10
